Legend:
[1] = target: Avidin from Gallus gallus egg white, Avi-pCBMA conjugate by solution synthesis (Gallus gallus, UniProt P02701); assay: Binding affinity of HABA to Avi-pCBMA conjugate, solution; conditions: 300 μM HABA, 1 minute, room temperature, [Avi]0 = 2 μM, ε500 = 34000 M^−1
Experimental: (§1) α-Chymotrypsin (CT) from bovine pancreas (type II), lysozyme from chicken egg white, acetylcholinesterase from Electrophorus electricus (electric eel, type VI-S), uricase from porcine liver (type V), and agarase from Pseudomonas atlantica were purchased from Sigma Aldrich (St Louis, Mo.). Avidin from Gallus gallus egg white was purchased from Lee Biosolutions (Maryland Heights, Mo.). Protein surface active ATRP initiator (NHS-ATRP initiator) was prepared as described elsewhere (Murata et al., supra).
(§2) Absorption at 500 nm of 300 μM HABA solution in phosphate buffered saline without calcium or magnesium (986 μL, Lonza) was measured using UV-VIS spectrometer. 16 μL, of the conjugates solution (1.25 μM of avidin in deionized water) was added to the HABA solution and incubated at room temperature for 1 minute, and then absorption at 500 nm was measured. Change in absorbance at 500 nm was used to determine bound HABA to the conjugate.

[2] = target: T1, Avidin from Gallus gallus egg white, Avi-pCBMA conjugate by PARIS (Gallus gallus, UniProt P02701); assay: Binding affinity of HABA to Avi-pCBMA conjugate, PARIS; conditions: 300 μM HABA
T1 construct: purchased Lee Biosolutions (Maryland Heights, Mo.); host or cells: Gallus gallus egg white
T1 sequence (P02701 25-152): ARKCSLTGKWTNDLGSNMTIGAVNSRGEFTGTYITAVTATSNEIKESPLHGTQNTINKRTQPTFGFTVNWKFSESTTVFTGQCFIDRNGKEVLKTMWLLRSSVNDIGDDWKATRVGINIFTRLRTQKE
Experimental: as §1, §2

[3] = target: T2, acetylcholinesterase (AChE) from Electrophorus electricus (electric eel, type VI-S), AChE-pCBMA conjugate by PARIS (Electrophorus electricus, UniProt O42275); assay: Michaelis-Menten kinetics of AChE-catalyzed hydrolysis of acetylthiocholine iodide, PARIS conjugate; type: biochemical; conditions: pH 7.4, 37° C.
T2 construct: purchased Sigma Aldrich (St Louis, Mo.); host or cells: Electrophorus electricus (electric eel)
T2 sequence (O42275 24-633): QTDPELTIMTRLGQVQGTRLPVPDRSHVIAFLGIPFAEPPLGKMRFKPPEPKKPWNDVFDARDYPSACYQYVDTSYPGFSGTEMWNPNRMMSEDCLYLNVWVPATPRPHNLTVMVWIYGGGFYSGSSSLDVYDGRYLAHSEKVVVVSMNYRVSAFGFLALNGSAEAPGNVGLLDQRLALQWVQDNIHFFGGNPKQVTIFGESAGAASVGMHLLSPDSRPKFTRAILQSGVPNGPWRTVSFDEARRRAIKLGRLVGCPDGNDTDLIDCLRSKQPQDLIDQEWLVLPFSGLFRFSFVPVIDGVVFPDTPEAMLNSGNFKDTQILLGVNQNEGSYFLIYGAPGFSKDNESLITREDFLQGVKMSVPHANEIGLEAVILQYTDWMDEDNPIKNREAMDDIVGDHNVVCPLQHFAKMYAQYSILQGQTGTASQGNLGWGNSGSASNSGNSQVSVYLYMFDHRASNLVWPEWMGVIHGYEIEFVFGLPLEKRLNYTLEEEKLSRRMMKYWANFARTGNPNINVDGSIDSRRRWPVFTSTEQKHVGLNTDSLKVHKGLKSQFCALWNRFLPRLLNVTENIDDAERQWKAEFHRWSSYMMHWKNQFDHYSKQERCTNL
Experimental: as §1
Acetylthiocholine iodide (0-100 μL of 10 mM in 100 mM sodium phosphate buffer (pH 7.4)) and 10 μL of DTNB solution (50 mM in DMSO) were mixed with 100 mM sodium phosphate buffer (980-880 μL, pH 7.4). Conjugate solution (10 μL, 5.5 μM of AChE) was added to the substrate solution. The initial substrate hydrolysis rate was monitored by recording the increase in absorbance at 412 nm using a UV-VIS absorbance spectrometer with a temperature-controlled cell holder at 37° C. Michaelis-Menten parameters were determined by nonlinear curve fitting of initial rate versus substrate concentration plots using Enzfitter software.

[4] = tested on: C[C@H](NC(=O)CCC(=O)O)C(=O)N[C@@H](C)C(=O)N1CCC[C@H]1C(=O)N[C@@H](Cc1ccccc1)C(=O)Nc1ccc([N+](=O)[O-])cc1; assay: purified protein, by the assay type; conditions: other: native CT, pH 8, 25° C.
Experimental: Suc-AAPF-pNA (0-125 μL of 9.60 mM in DMSO) was mixed with sodium phosphate buffer (865-950 μL of 100 mM buffer, pH 8). Native CT or conjugate solutions (10 μL, 3.9 μM of CT) was added to the substrate solution. The initial substrate hydrolysis rate was monitored by recording the increase in absorbance at 412 nm using a UV-VIS absorbance spectrometer with a temperature-controlled cell holder at 25° C. Michaelis-Menten parameters were determined by nonlinear curve fitting of initial rate versus substrate concentration plots using Enzfitter software.

Avidin from Gallus gallus egg white, Avi-pCBMA conjugate by solution synthesis, sequence (P02701 25-152): as the sequence (P02701 25-152) above

Molecule: O=C(O)c1ccccc1/N=N/c1ccc(O)cc1 [HABA, 4′-hydroxyazobenzene-2-carboxylic acid]
- Bound HABA [1]: 0.92 ± 0.04 µM
- Ratio of binding affinity of HABA (PARIS:solution) ([2]; Avi-pCBMA, PARIS:solution): 1.01 ± 0.14
- Bound HABA ([2]; PARIS Avi-pCBMA, 1 minute, room temperature, [Avi]0 = 2 μM, ε500 = 34000 M^−1): 0.93 ± 0.13 µM

Molecule: CC(=O)SCC[N+](C)(C)C.[I-] [acetylthiocholine iodide, Acetylthiocholine iodide]
- Ratio of enzymatic efficiency (PARIS:solution) [3]: 1.09 ± 0.08

Molecule: α-Chymotrypsin (CT) from bovine pancreas (type II), native (Bos taurus)
- Km [4]: 80.3 ± 13.1 µM
- kcat [4]: 34.6 ± 1.4 s⁻¹
- kcat/Km [4]: 431000 ± 72000 M⁻¹ s⁻¹

— US20200369716A1, “SOLID-PHASE SYNTHESIS OF PROTEIN-POLYMER CONJUGATES ON IMMOBILIZATION SUPPORTS” (Carnegie Mellon University, priority 2017, published 2020)
